“Also recorded” adds a separate entry of the source.
Columns and labels:
[1] = tested on: spontaneous PBC-like disease in NOD.c3c4 mice; assay: Treatment of spontaneous PBC-like disease in NOD.c3c4 mice; format: in vivo, mouse; settings: FIG. 2
From the text: FIG. 2 illustrates the effect of treatment with αGalCer (KRN7000)/CD1d-coated NPs vs soluble KRN7000 or uncoated NPs on readouts of PBC in NOD.c3c4 mice. CBD, Common Bile Duct.

[2] = tested on: iNKT cells; assay: Flow cytometry of iNKT cells (αGalCer/CD1d tetramer stained) from treated NOD.c3c4 mice; format: in vivo, mouse
From the text: FIG. 3 illustrates the effect of treatment with αGalCer (KRN7000)/CD1d-coated NPs vs uncoated NPs on the CD4/CD8 phenotype of liver (top) and splenic (bottom) iNKT cells (stained with αGalCer (KRN7000)/CD1d tetramers).
FIG. 4 illustrates the effect of treatment with αGalCer (KRN7000)/CD1d-coated NPs vs uncoated NPs on the levels of PD1, CD49d, CD69 and LAG3 in liver iNKT cells (stained with αGalCer (KRN7000)/CD1d tetramers).

[3] = tested on: liver iNKT cells; assay: RNA sequencing (RNAseq) of liver iNKT cells sorted from treated vs. untreated NOD.c3c4 mice; format: in vivo, mouse
Procedure: FIG. 5 illustrates normalized RNA expression counts (±SEM) for iNKT-relevant genes in the liver iNKT cells of NOD.c3c4 mice treated with αGalCer (KRN7000)/CD1d-NPs vs. control NOD.c3c4 mice.
To investigate this, RNA sequencing (RNAseq) studies of liver iNKT cells sorted from αGalCer/CD1d-NP-treated vs. untreated NOD.c3c4 mice was performed. […] When considering genes known to be expressed in various iNKT cell subsets (Gapin, L. (2016). “Development of invariant natural killer T cells” Curr. Opin. Immunol. 39, 68-74) including iNKT1 (Zbtb16 (PLZF)-low, Tbx21 (Tbet)+, Gata3−, Rorc (RORgt)−, Foxp3−, Maf−, Cd24−, Cd44+, Klrb1 (NK1.1)+, Ifbg+, IL2−, Il4+, Il17−, Il10−, Il21−, Il2rb (Cd122)+, Mirlet7 (LET-7)+, Znf683 (HOBIT)-high), iNKT2 (Zbtb16-high, Tbx21−, Gata3+, Rorc−, Maf−, Foxp3−, Cd24−, Cd44+, Klrb1−, Ifng−, Il2−, Il4+, Il17−, Il10−, Il21−, Il17rb+, Tnfsf11 (RANKL)+; and iNKT17 (Zbtb16-int, Tbx21−, Gata3−, Rorc+, Foxp3−, Maf-low, Cd24−, Cd44+, Klrb1-low/−, Il2−, il4−, Ifng−, Il17+, Il10−, Il21−, Tgfbr2+, Tnfsf11+), the liver iNKT cells of non-treated NOD.c3c4 mice appeared to be rather unique (Zbtb16+, Tbx21+, Gata3+, Rorc-low, Foxp3−, Maf-low, Cd24-low, Cd44+, Klrb1+, Il2−, Il4-low, Ifng+, Il17−, Il10−, Il21−, Il2rb+, Il17rb-low, Tgfbr2+, Mirlet7−, Znf683−, Tnfsf11−). Remarkably, the liver iNKT cells from treated animals were somewhat similar to the latter, except that they were Rorc−, Maf-high, Il10-high, Il21-high, Il2rb+, Il17rb− and Tgfbr2-low. […] The liver iNKT cells of treated mice were also different from αGalCer-induced NKT10 cells, based on available gene expression data (Il10+, Klrb1-low, Nfil3+ (E4BP4, which regulates IL-10 and IL-13 expression), Nrp1+, Itga4+, Itgae−, Ctla4+, Fr4+, Bcl6−, Il7r+, Slamf6-high, Icos+) (Sag et al., 2014). Unlike these iNKT10 cells, the liver iNKT cells from treated mice were Nfli3−, Nrp1-low, Fr4−, Bcl6-low and Il7r-low. […] These observations were substantiated by comparing the liver iNKT RNAseq data from αGalCer/CD1d-NP-treated and untreated mice to iNKT1, iNKT2, iNKT10 and iNKT17 RNAseq data from Engel et al. (Engel, I., et al. (2016). “Innate-like functions of natural killer T cell subsets result from highly divergent gene programs” Nat. Immunol. 17, 728-739.) (FIG. 6A to 6D)
To ascertain if some of the gene expression differences that were observed between the liver iNKT cells of αGalCer/CD1d-NP-treated and untreated mice were driven, at least in part, by their unique transcriptional factor expression profile, which transcription factors were associated with expression of differentially expressed genes was determined.
Consequently, these αGalCer/CD1d-NP-induced liver iNKT cells are called iNKTR1 cells.

[4] = tested on: CD11b+ APCs from liver-draining LNs and liver Kupffer cells; assay: Suppression of antigen presentation by APCs by liver iNKT cells from treated mice; format: cell-based, mouse; settings: APCs from untreated mice, FIG. 9
From the text: (§1) Next the mechanisms of disease suppression were investigated.

[5] = tested on: NOD.c3c4.scid mice; assay: Transfer of disease protection by liver iNKT cells to NOD.c3c4.scid mice reconstituted with diseased splenocytes; format: in vivo, mouse; settings: vs liver iNKT cells from control NOD.c3c4 donors; FIG. 10
From the text: as §1

[6] = tested on: wild-type NOD.c3c4 mice; assay: Cytokine/cytokine receptor blockade of therapeutic activity in treated NOD.c3c4 mice; format: in vivo, mouse
[7] = tested on: liver iNKT cells, Kupffer cells and B-lymphocytes; assay: Spinning-disk confocal intravital microscopy of liver in Cxcr6GFP/+ Ifng-Delta-ARE+/- (NOD×B6) F1 mice; format: in vivo, mouse
From the text: To get further insights into downstream cellular targets, spinning-disk confocal intravital microscopy was used to track αGalCer/CD1d-NP-induced iNKT cells, Kuppfer cells, and B-lymphocytes in the livers of treated and untreated Ifng-Delta-ARE^+/− (NOD×B6) F1 mice, which also develop spontaneous PBC-like disease. To track iNKT cells in vivo, Cxcr6^GFP/+ mice were used, in which 60-80% of liver eGFP+ cells are iNKT cells, the remainder being NK and T-cells (Geissmann et al., 2005; Liew et al., 2017). In sterile injury in the liver, recognition of endogenous glycolipid ligands on endothelial cells, Kupffer cells and other CD1d-expressing liver cells by iNKT cells result in the conversion of proinflammatory CCR2+ Ly6Chi monocytes into regulatory CX3CR1+ Ly6Clow monocytes, a process that is driven by iNKT-cell-derived IL-4. […] Although there were similar numbers of B-cells in the liver of untreated mice, they […] in interactions with Cxcr6+ cells to the same extent. […] See Lee, W. Y., et al. (2010). “An intravascular immune response to Borrelia burgdorferi involves Kupffer cells and iNKT cells” Nat. Immunol. 11, 295-302.

[8] = tested on: B-cells; assay: Breg cell formation from transferred Il10-eGFP B cells in treated NOD.c3c4 mice; format: in vivo, mouse; settings: within 7 days of transfer; B-cells pulsed with αGalCer or not
From the text: This was done by transferring αGalCer-pulsed or non-pulsed B cells carrying an eGFP transgene in the Il10 locus into αGalCer/CD1d-NP-treated or untreated NOD.c3c4 mice, and enumerated the frequency of transferred CD5+ and CD1d^high B-cells that acquired eGFP expression within 7 days. […] Thus, αGalCer/CD1d-NP treatment triggers iNKTR1 cell formation which then drive Breg cell formation by recognizing endogenous B-cell antigenic ligand(s) in a CD1d-restricted manner.

[9] = flow cytometry, vs liver iNKT cells of control (untreated or Cys-NP-treated) mice, FIG. 4
[10] = treated NOD.c3c4 mice, not shown
[11] = RNAseq, negative in liver iNKT cells of untreated mice
[12] = RNAseq, treated mice, unlike iNKT10 cells
[13] = RNAseq, treated vs untreated mice

For “αGalCer/CD1d-NP: nanoparticles coupled to CD1d molecules whose binding groove is loaded with alpha-galactosylceramide (KRN7000)”, the “effect on spontaneous PBC-like disease” value [1] was “profound suppressive effect”, the “CD4/CD8 phenotype of splenic and liver-associated iNKT cells” value ([2]; at the expense of CD4−CD8− iNKT cells, FIG. 3) was “enriched for CD4+CD8− iNKTs” and the “CD69 level on iNKT cells” value [2, 9] was “significantly higher levels”. The “CD49d level on iNKT cells” value [2, 9] was “significantly higher levels”, the “Lag-3 level on iNKT cells” value [2, 9] was “significantly higher levels” and the “PD1 level on iNKT cells” value [2, 9] was “significantly higher levels”. The “circulating frequency of iNKT cells” value [2, 10] was “slight increase”, the “iNKT content in spleen and lymph nodes (liver-draining and not)” value [2, 10] was “slight decrease” and the “expression levels of compared genes in induced liver iNKT cells vs TR1 cells” value ([3]; 66 genes, normalized gene counts, FIG. 8) was “highly similar levels of expression”. The “genes with >4-fold differences in expression compared with TR1 cells” value ([3]; FIG. 8, number of genes) was 66, the “IL-10 (Il10) expression in liver iNKT cells” value ([3]; RNA, treated vs untreated mice) was “high upregulation; also recorded: Il10-high; also recorded: several hundred-fold higher levels” and the “IL-21 (Il21) expression in liver iNKT cells” value ([3]; RNA, treated vs untreated mice) was “Il21-high; also recorded: high upregulation; also recorded: several hundred-fold higher levels”. The “CTLA4 (Ctla4) expression in liver iNKT cells” value [3, 11] was “high levels; also recorded: high upregulation”, the “Itga4 (CD49d) expression in liver iNKT cells” value [3, 11] was “high levels” and the “Lag3 expression in liver iNKT cells” value [3, 11] was “high levels; also recorded: high upregulation”. For the same substance, the “Slamf6 expression in liver iNKT cells” value [3, 11] was “high levels”, the “Bcl6 expression in liver iNKT cells” value ([3]; RNAseq, treated mice) was “Bcl6-low; also recorded: low levels” and the “Ccr6 expression in liver iNKT cells” value ([3]; RNAseq, treated mice) was “significantly downregulated”. For the same substance, the “Il7r expression in liver iNKT cells” value ([3]; RNAseq, treated mice) was “significantly downregulated; also recorded: Il7r-low”, the “Itgae (CD103) expression in liver iNKT cells” value ([3]; RNAseq, treated mice) was “significantly downregulated” and the “Nrp1 expression in liver iNKT cells” value ([3]; RNAseq, treated mice) was “Nrp1-low”. For the same substance, the “Tnfrsf14 (BTLA) expression in liver iNKT cells” value ([3]; RNAseq, treated mice) was “significantly downregulated”, the “Fr4 expression in liver iNKT cells” value [3, 12] was “Fr4−” and the “Nfil3 expression in liver iNKT cells” value [3, 12] was “Nfli3−”. The “Cxcr5 expression in liver iNKT cells” value ([3]; RNAseq, treated mice, unlike iNKT-FH cells) was “lack expression”, the “Gata3 expression in liver iNKT cells” value [3, 13] was “significantly upregulated” and the “PD1 expression in liver iNKT cells” value [3, 13] was “high upregulation”. The “TIGIT expression in liver iNKT cells” value [3, 13] was “high upregulation”, the “Vdr expression in liver iNKT cells” value [3, 13] was “significantly upregulated” and the “c-maf (Maf) expression in liver iNKT cells” value [3, 13] was “high upregulation; also recorded: Maf-high; also recorded: significantly upregulated”. The “Il2rb expression in liver iNKT cells” value ([3]; RNAseq, untreated: Il2rb+) was “Il2rb+”, the “Il17rb expression in liver iNKT cells” value ([3]; RNAseq, untreated: Il17rb-low) was “Il17rb−” and the “Rorc expression in liver iNKT cells” value ([3]; RNAseq, untreated: Rorc-low) was “Rorc−”. For the same substance, the “Tgfbr2 expression in liver iNKT cells” value ([3]; RNAseq, untreated: Tgfbr2+) was “Tgfbr2-low”, the “differentially expressed genes shared by the TR1 cells” value ([3]; of 238, comparison of RNA-seq profiles) was 91 and the “differentially expressed genes also upregulated in cognate TR1-like CD4+ T-cells of pMHCII-NP-treated mice” value ([3]; of 238, number of genes) was 138. For the same substance, the “downregulated genes co-regulated by Maf, Gata3 and Vdr” value ([3]; of the 71 downregulated, FIG. 7) was “none”, the “upregulated protein-coding genes co-regulated by Maf, Gata3 and Vdr” value ([3]; of the 135 upregulated, FIG. 7) was 66 and the “differentially expressed genes also upregulated in cognate TR1-like CD4+ T-cells of pMHCII-NP-treated mice” value ([3]; share of 238 genes) was 58%. For the same substance, the “number of differentially expressed genes in liver iNKT cells” value ([3]; treated vs untreated mice) was 238, the “number of downregulated protein-coding genes in liver iNKT cells” value ([3]; treated vs untreated mice) was 71 and the “number of upregulated protein-coding genes in liver iNKT cells” value ([3]; treated vs untreated mice) was 135. For the same substance, the “suppression of presentation of IGRP206-214 peptide to cognate TCR-transgenic CD8+ T-cells” value [4] was “could suppress”, the “transfer of disease protection by liver iNKT cells from treated mice” value [5] was “could transfer disease protection” and the “effect of IL-21R blockade on therapeutic activity” value ([6]; mouse, in vivo) was “abrogated”. For the same substance, the “inhibition of therapeutic activity by IFNγ blockade” value ([6]; wild-type NOD.c3c4 mice) was “not”, the “inhibition of therapeutic activity by IL-4 blockade” value ([6]; wild-type NOD.c3c4 mice) was “to a lesser extent” and the “inhibition of therapeutic activity by IL-10 blockade” value ([6]; wild-type NOD.c3c4 mice) was “partially inhibited”. The “B-cell killing through iNKT-B-cell interactions” value ([7]; 4 days after the last dose) was “did not appear to result in B-cell killing”, the “interaction of liver iNKT cells with B-cells” value ([7]; 4 days after the last dose, anti-CD19 labelled B-cells) was “seeking and engaging” and the “number of liver iNKT cells” value ([7]; bi-weekly treatment, vs untreated mice) was “massive increase”. For the same substance, the “motility of liver iNKT cells” value ([7]; imaged 4 days after the last dose) was “highly motile”, the “motility of liver iNKT cells” value ([7]; imaged within 4 hours of a dose) was “stopped moving” and the “conversion of transferred B-cells into IL-10/eGFP-expressing CD1d-high/CD5+ Breg cells” value [8] was “Breg cell formation in treated, but not untreated animals; also recorded: can trigger the conversion”.

— US20220211868A1, “NANOPARTICLES COMPRISING NON-CLASSICAL MHC AND USES THEREOF” (UTI Limited Partnership, priority 2019, published 2022)
